Measurements as given in patent publication US9757378B2, “Methods to modulate acute myeloid leukemia stem/progenitor cell expansion and/or differentiation” (UNIVERSITE DE MONTREAL, priority 2013, dated 2017).

Tested on: primary human AML cells
Experiment: Primary screen: differentiation of primary human AML cells in vitro (CD34/CD15, HTS flow cytometry)
Settings: for % increase CD34+ (%) / % increase CD34+ (cell counts) / % increase CD34+CD15− (cell counts): compared to DMSO; for % increase CD34+CD15− (%): compared to DMSO ((compound − DMSO)/DMSO*100); for CD34+CD15− cell counts compared to DMSO: in words; for percent gated cells (viability): 2 μM (commercial libraries) or 1 μg/ml (IRIC)
Protocol: AML cells were thawed in 37° C. water bath and 1:10 diluted in prewarmed Iscove's modified Dulbecco's medium (IMDM) containing 20% FBS and DNase 100 μg/ml. […] When compounds were added to the culture medium, final DMSO concentrations were 0.1% in all in vitro experiments and 0.01% when cultured cells were transplanted into NSG-mice.
Compounds were tested at 2 μM (commercial libraries) or 1 μg/ml (Medicinal Chemistry Facility, IRIC). […] For validation experiments AML cells were grown in 384-well plates with 3-8 replicates per condition.
Flow cytometry was performed on an LSR™ II cytometer equipped with an HTS-device (BD Bioscience, Primary and Secondary screens and in vitro validation experiments) or on a BD Canto™ II cytometer (BD Bioscience, Xenotransplantation and CellTrace Violet™ experiments). Cells were stained for 30 minutes at 4° C. protected from light if not otherwise indicated (CellTrace Violet™ staining). […] CD34 intensities in flow cytometry plots were set at high levels on day 0 to allow tracing of non-predictable decreases of intensities during 7 days in culture.

| Compound | % increase CD34+ (%) | % increase CD34+ (cell counts) [%] | % increase CD34+CD15− (cell counts) [%] | % increase CD34+CD15− (%) | CD34+CD15− cell counts compared to DMSO | percent gated cells (viability) [%] |
| --- | --- | --- | --- | --- | --- | --- |
| 2′-beta-Dihydrochalcone [UM0120960] | 24.69 | 8.21 | 41.99 | 63.62 |  |  |
| Nc1ccccc1C(=O)CC(N)C(=O)O (stereo not drawn) [Kynurenine] |  |  |  |  | further reduced |  |
| N[C@@H](Cc1c[nH]c2ccccc12)C(=O)O [Tryptophan] |  |  |  |  | further reduced |  |
| COc1ccc(-c2cc(=O)c3ccccc3o2)cc1 [UM0070201, 4′-Methoxyflavone] | 28.71 | 20.27 | 58.22 | 69.03 |  | 78.10 |
| COc1ccc(-c2cc(=O)c3ccc(O)cc3o2)cc1 [UM0117304, Pratol] | 50.40 | 31.59 | 47.36 | 68.85 |  | 82.40 |
| COc1cc2c(cc1O)C[C@H]1c3c(cc(O)c(OC)c3-2)CCN1C [UM0118103, Boldine] | −3.69 | 10.21 | 50.97 | 31.10 |  | 87.00 |
| O=c1cc(-c2ccc(O)c(O)c2)oc2cc(O)cc(O)c12 [UM0118175, Luteolin] | 40.48 | 4.97 | 27.50 | 70.76 |  | 79.80 |
| COc1ccc2c(c1)[nH]c1c(C)nccc12.Cl [UM0118303, Harmine hydrochloride] | 8.79 | −17.08 | 38.52 | 81.33 |  | 78.60 |
| O.O.O=c1c(O)c(-c2ccc(O)c(O)c2)oc2cc(O)cc(O)c12 [UM0118473, Quercetine dihydrate] | 15.71 | 6.69 | 69.64 | 83.29 |  |  |
| Oc1ccc(C=Cc2cc(O)cc(O)c2)cc1 [UM0118532, Resveratrol] | 22.62 | −14.19 | 12.57 | 60.46 |  | 78.00 |
| O=c1cc(-c2ccc(O)cc2)oc2cc(O)cc(O)c12 [UM0118614, Apigenin] | 20.12 | 22.02 | 66.30 | 63.93 |  |  |
| CC[C@H](C)C(=O)O[C@H]1C[C@@H](C)C=C2C=C[C@H](C)[C@H](CC[C@@H]3C[C@@H](O)CC(=O)O3)[C@H]21 [UM0118699, Lovastatin] | 1.88 | −14.30 | 36.94 | 62.41 |  | 81.00 |
| COc1cc(-c2ccc(N=Nc3ccc4c(S(=O)(=O)[O-])cc(S(=O)(=O)[O-])c(N)c4c3O)c(OC)c2)ccc1N=Nc1ccc2c(S(=O)(=O)[O-])cc(S(=O)(=O)[O-])c(N)c2c1O.[Na+].[Na+].[Na+].[Na+] [UM0118703, Chicago sky blue 6B] | 42.39 | 31.67 | 42.76 | 54.52 |  |  |
| CC(=O)c1ccc2c(c1)N(CCCN(C)C)c1ccccc1S2.O=C(O)/C=C\C(=O)O [UM0118758, Acetopromazine maleate salt] | −0.82 | −11.68 | 41.15 | 57.85 |  |  |
| C[C@@H]1O[C@@H](O[C@H]2[C@H](Oc3cc(O)c4c(=O)c(O)c(-c5ccc(O)cc5)oc4c3)O[C@H](CO)[C@@H](O)[C@@H]2O)[C@H](O)[C@H](O)[C@H]1O [UM0119289, Kaempferol-7-Neohesperidoside] | 12.75 | 29.49 | 72.47 | 50.39 |  |  |
| OC[C@@H]1CCCN2CCCC[C@H]12 [UM0119416, Lupinine] | 10.12 | 30.63 | 51.77 | 28.13 |  |  |
| O=c1c(O)c(-c2ccccc2)oc2cc(O)cc(O)c12 [UM0119448, Galangine] |  | −0.57 | 23.06 | 60.64 |  |  |
| COc1cc(-c2oc3cc(O)ccc3c(=O)c2O)ccc1O [UM0119468, Geraldol] | 25.29 | −41.47 | −23.14 | 64.06 |  | 78.50 |

| Compound | % increase CD34+ (%) | % increase CD34+ (cell counts) [%] | % increase CD34+CD15− (cell counts) [%] | % increase CD34+CD15− (%) | CD34+CD15− cell counts compared to DMSO | percent gated cells (viability) [%] |
| --- | --- | --- | --- | --- | --- | --- |
| C[C@]12CCC(=O)C=C1CC[C@@H]1[C@@H]2CC[C@]2(C)C(=O)CC[C@@H]12 [UM0119559, 4-Androstene-3,17-dione] | 1.57 | −20.76 | 20.14 | 53.81 |  | 82.30 |
| NC(=Nc1ccccc1)NC(=O)c1nc(Cl)c(N)nc1N [UM0120143, Phenamil methanesulfonate] | 30.88 | 28.04 | 54.83 | 58.21 |  | 84.10 |
| CC(C)Oc1ccc2c(=O)c(-c3ccccc3)coc2c1 [UM0120559, Ipriflavone] | 27.34 | 39.89 | 54.50 | 40.47 |  |  |
| CCOC(=O)c1c(C)cc(O)c(C)c1O [UM0120789, Methylorsellinic acid ethyl ester] | 22.49 | 22.38 | 52.88 | 52.70 |  | 84.00 |
| Cc1cc(=O)oc2cc(O)c(O)cc12 [UM0120835, 4-Methylesculetin] | 22.85 | 18.23 | 104.34 | 111.64 |  | 84.90 |
| COc1ccc(C2CC(=O)c3ccc(OC)cc3O2)cc1 (stereo not drawn) [UM0120851, Liquiritigenin dimethylether] | 34.97 | 31.66 | 59.21 | 63.25 |  | 81.20 |
| COC(=O)/C(C)=C\CC12OC(C)(C)C3CC(C=C4C(=O)c5c(OC)c6c(c(CC=C(C)C)c5OC431)OC(C)(CCC=C(C)C)C=C6)C2=O (stereo not drawn) [UM0120889, Dimethyl gambogate] | 47.72 | −50.44 | −48.79 | 52.62 |  |  |
| CC(C)=CCOc1cc2oc(=O)ccc2cc1O [UM0120947, Prenyletin] | 18.10 | 15.58 | 56.71 | 60.33 |  | 81.10 |
| Oc1cc(O)cc(/C=C/c2ccccc2)c1 [UM0120964, Pinosylvin] | 24.20 | 8.62 | 39.69 | 59.46 |  | 69.90 |
| COc1ccc(-c2cc(=O)c3c(OC(C)=O)cc(OC(C)=O)cc3o2)cc1 [UM0120987, Acacetin diacetate] | 27.58 | 22.16 | 53.47 | 59.88 |  | 81.60 |
| COc1c(-c2ccccc2)oc2c(OC)cccc2c1=O [UM0121168, 3,8-Dimethoxyflavone] | 29.05 | 24.97 | 53.85 | 58.96 |  | 80.80 |
| CC(=O)Oc1ccc(-c2cc(=O)c3c(OC(C)=O)cc(OC(C)=O)cc3o2)cc1 [UM0121171, Apigenin triacetate] | 48.36 | 17.48 | 31.61 | 66.25 |  | 80.10 |
| COc1cc(OC)c2c(=O)cc(-c3ccccc3)oc2c1 [UM0121173, 5,7-Dimethoxyflavone] | 29.43 | 34.90 | 53.11 | 46.97 |  | 82.00 |
| O=c1c2ccccc2oc2ccc(O)cc12 [UM0121186, 2-Hydroxyxanthone] | 48.93 | 48.11 | 65.21 | 66.25 |  | 82.40 |
| CC(C)=CCc1c(O)cc2oc(C)cc(=O)c2c1O [UM0121217, Peucenin] | 23.46 | 37.27 | 94.61 | 74.92 |  | 83.20 |
| COc1cc(OC)c2c(=O)c(-c3ccc4c(c3)OCO4)coc2c1 [UM0121218, Derrustone] | 21.91 | 25.53 | 58.63 | 53.68 |  | 83.90 |
| CCOC(=O)c1oc2c(OC)c(O)cc(O)c2c(=O)c1-c1cc(OC)c(OC)c(OC)c1 [UM0121233, 2-Ethoxycarbonyl-5,7-dihydroxy-8,3′,4′,5′-tetramethoxyisoflavone] | 15.01 | 18.21 | 50.24 | 45.77 |  | 86.30 |
